Biological target: T1, Penicillin-binding protein 4 (Bacillus subtilis (strain 168), UniProt P40750)
T1 sequence (P40750 whole entry): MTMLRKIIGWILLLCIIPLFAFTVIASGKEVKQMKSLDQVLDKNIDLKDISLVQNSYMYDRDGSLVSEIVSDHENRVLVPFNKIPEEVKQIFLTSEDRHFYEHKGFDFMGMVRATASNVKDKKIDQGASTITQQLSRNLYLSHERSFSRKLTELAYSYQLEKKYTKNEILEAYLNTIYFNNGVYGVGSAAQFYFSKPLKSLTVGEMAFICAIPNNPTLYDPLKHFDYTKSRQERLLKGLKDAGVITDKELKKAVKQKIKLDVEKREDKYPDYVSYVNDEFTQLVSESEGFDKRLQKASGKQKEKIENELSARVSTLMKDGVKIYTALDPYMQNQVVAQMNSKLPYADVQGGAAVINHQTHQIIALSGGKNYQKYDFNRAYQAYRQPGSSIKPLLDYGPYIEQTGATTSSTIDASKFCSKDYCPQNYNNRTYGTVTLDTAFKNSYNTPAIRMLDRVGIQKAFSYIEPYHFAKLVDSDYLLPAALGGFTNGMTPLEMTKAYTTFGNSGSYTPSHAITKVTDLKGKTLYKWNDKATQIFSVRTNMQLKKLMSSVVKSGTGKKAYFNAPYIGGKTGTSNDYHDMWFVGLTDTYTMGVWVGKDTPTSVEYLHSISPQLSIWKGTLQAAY
Assay: Inhibition of Bacillus subtilis 168 PBP4 after 30 mins by SDS-PAGE
Conditions: read-out: kon (M-1-s-1)

SMILES: CC1(C)S[C@@H]2[C@H](NC(=O)COc3ccccc3)C(=O)N2[C@H]1C(=O)O [Beepen-VK]
- kon: 19000 M⁻¹ s⁻¹
